# Laboratory results taken from US20260250290A1 (BRISTOL-MYERS SQUIBB COMPANY, priority 2023, published 2026).
# pIC50: −log10 of the molar value. Where a name gives a salt, the structure may show the parent alone.
# Target: T1, SGK1 (Homo sapiens, UniProt O00141)
# T1 sequence (O00141 1-431): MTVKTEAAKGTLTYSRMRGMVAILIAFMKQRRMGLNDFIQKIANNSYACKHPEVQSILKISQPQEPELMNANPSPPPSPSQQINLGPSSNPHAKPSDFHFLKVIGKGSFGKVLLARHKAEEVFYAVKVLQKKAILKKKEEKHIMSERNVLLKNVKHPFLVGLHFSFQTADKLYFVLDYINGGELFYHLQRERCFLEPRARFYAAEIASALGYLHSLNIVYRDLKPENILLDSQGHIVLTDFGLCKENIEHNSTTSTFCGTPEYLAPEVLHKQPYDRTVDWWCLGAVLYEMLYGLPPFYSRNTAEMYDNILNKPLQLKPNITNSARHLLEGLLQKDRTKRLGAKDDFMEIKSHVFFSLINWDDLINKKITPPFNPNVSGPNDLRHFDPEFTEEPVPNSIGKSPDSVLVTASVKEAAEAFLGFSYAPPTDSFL
# Test: SGK1 inhibition Assay B (Echo mass spectrometry of phosphorylated peptide product)
# Format: biochemical
# Conditions: 60 min at room temperature
# Procedure: 20 μl of 2 nM SGK1 were added in 20 mM Hepes+10 mM MgCl2+0015% Brij-35+4 mM DTT+0.05 mg/ml BSA and the reaction incubated for 60 min at room temperature. The enzymatic reaction was quenched by addition 10 μl of 1% Formic Acid+150 nM Internal Standard: FITC-(Ahx)KKRNRR(pS)VA^—OH (final concentration). The plates are spun down at 3700 RPM for 10 minutes to remove all precipitate. Samples were loaded on to the Sciex Echo Mass Spec attached to a Sciex 6500 equipped with ESI and was used to analyze the phosphorylated peptide product. MRM transition of product and internal standard were monitored at m/z 755 to 937.5 and m/z 757.7 to 941.3 respectively. Peak area of analyte was normalized with internal standard.
# Dose response curves were generated to determine the concentration required for inhibiting 50% of the enzyme activity. Compounds were dissolved at 10 mM in dimethylsulfoxide (DMSO) and evaluated at eleven concentrations.
row,pIC50,Compound
1,8.51,"Cc1nc(OC2CCC(N3CC(O)C3)CC2)c(C(=O)N[C@@H]2CCCN(c3cc(C#N)n4ncnc(N)c34)C2)s1 (stereo partly drawn) [Example 1048, (R)—N-(1-(4-amino-7-cyanopyrrolo[2,1-f][1,2,4]triazin-5-yl)piperidin-3-yl)-4-((4-(3-hydroxyazetidin-1-yl)cyclohexyl)oxy)-2-methylthiazole-5-carboxamide]"
2,9.15,"CCC1=C(c2cc(N3CCC[C@@H](NC(=O)c4sc(C)nc4OC4CCC(N5CC(O)C5)CC4)C3)c3c(N)ncnn23)COC1=O (single isomer, unassigned) [Example 1021]"
3,8.40,CN1CCN(c2nccc(C(=O)N[C@@H]3CCCN(c4cc(-c5cnc(-n6cnnn6)c(F)c5)n5ncnc(N)c45)C3)n2)CC1 [Example 858]
4,9.00,"CC(=O)N1CC=C(c2cc(N3CCC[C@@H](NC(=O)c4cc5[nH]ccc5s4)C3)c3c(N)ncnn23)C1 [Example 923, (R)—N-(1-(7-(1-acetyl-2,5-dihydro-1H-pyrrol-3-yl)-4-aminopyrrolo[2,1-f][1,2,4]triazin-5-yl)piperidin-3-yl)-4H-thieno[3,2-b]pyrrole-2-carboxamide]"
5,9.00,"Cc1nc(O[C@H]2CC[C@@H](NC3CCOC3)CC2)c(C(=O)N[C@@H]2CCCN(c3cc(-c4ccc(=O)n(CC(F)F)n4)n4ncnc(N)c34)C2)s1 (stereo partly drawn) [Example 980, N—((R)-1-(4-Amino-7-(1-(2,2-difluoroethyl)-6-oxo-1,6-dihydropyridazin-3-yl)pyrrolo[2,1-f][1,2,4]triazin-5-yl)piperidin-3-yl)-2-methyl-4-(((1s,4S)-4-((tetrahydrofuran-3-yl)amino)cyclohexyl)oxy)thiazole-5-carboxamide]"
6,9.00,CC(C)N1CC2(CC(Oc3cc(Cl)sc3C(=O)N[C@@H]3CCCN(c4cc(-c5ccnc(C#N)c5)n5ncnc(N)c45)C3)C2)C1 [Example 995]
7,8.40,"Cc1nc(O[C@H]2CC[C@@H](N(C)C)CC2)c(C(=O)N[C@@H]2CCCN(c3cc(-c4ccc(=O)n(CC(F)(F)F)n4)n4ncnc(N)c34)C2)s1 [Example 973, N—((R)-1-(4-amino-7-(6-oxo-1-(2,2,2-trifluoroethyl)-1,6-dihydropyridazin-3-yl)pyrrolo[2,1-f][1,2,4]triazin-5-yl)piperidin-3-yl)-4-(((1s,4S)-4-(dimethylamino)cyclohexyl)oxy)-2-methylthiazole-5-carboxamide]"
8,7.92,CC(=O)N1CC=C(c2cc(N3CCC[C@@H](NC(=O)c4sc(C#N)cc4O[C@@H]4C[C@H]5CC[C@@H](C4)N5C)C3)c3c(N)ncnn23)C1 [Example 753]
9,9.00,"COC[C@@H](C)NC1CCC(Oc2nc(C)sc2C(=O)N[C@@H]2CCCN(c3cc(C4=C(C)C(=O)OC4)n4ncnc(N)c34)C2)CC1 (stereo partly drawn) [Example 1008, N-((R)-1-(4-amino-7-(4-methyl-5-oxo-2,5-dihydrofuran-3-y1)pyrrolo[2,1-f][1,2,4]triazin-5-yl)piperidin-3-y1)-4-((4-(((R)-1-methoxypropan-2-yl)amino)cyclohexyl)oxy)-2-methylthiazole-5-carboxamide]"
10,9.00,"Cc1nc(O[C@H]2CC[C@@H](N(C)C)CC2)c(C(=O)N[C@@H]2CCCN(c3cc(-c4ccc(C(N)=O)c(F)c4)n4ncnc(N)c34)C2)s1 [Example 937, N—((R)-1-(4-Amino-7-(4-carbamoyl-3-fluorophenyl)pyrrolo[2,1-f][1,2,4]triazin-5-yl)piperidin-3-yl)-4-(((1s,4S)-4-(dimethylamino)cyclohexyl)oxy)-2-methylthiazole-5-carboxamide]"
11,8.70,"CC(=O)N1CC=C(c2cc(N3CCC[C@@H](NC(=O)c4sc(Cl)cc4OC4CCC(N5CCOCC5)CC4)C3)c3c(N)ncnn23)C1 (single isomer, unassigned; isomer 1) [Example 936]"
12,8.77,"COc1nccc(-c2cc(N3CCC[C@@H](NC(=O)c4sc(C)nc4O[C@H]4CC[C@@H](N(C)C)CC4)C3)c3c(N)ncnn23)n1 [Example 1028, N—((R)-1-(4-amino-7-(2-methoxypyrimidin-4-yl)pyrrolo[2,1-f][1,2,4]triazin-5-yl)piperidin-3-yl)-4-(((1S,4S)-4-(dimethylamino)cyclohexyl)oxy)-2-methylthiazole-5-carboxamide]"
13,8.70,"CC(=O)c1ccc(-c2cc(N3CCC[C@@H](NC(=O)c4sc(Cl)cc4O[C@@H]4C[C@H]5CC[C@@H](C4)N5C)C3)c3c(N)ncnn23)cc1F [Example 839, N-((R)-1-(7-(4-acetyl-3-fluorophenyl)-4-aminopyrrolo[2,1-f][1,2,4]triazin-5-yl)piperidin-3-yl)-5-chloro-3-(((1R,3s,5S)-8-methyl-8-azabicyclo[3.2.1]octan-3-yl)oxy)thiophene-2-carboxamide]"
14,9.00,"Cc1nc(O[C@H]2CC[C@]3(CCCN3)CC2)c(C(=O)N[C@@H]2CCCN(c3cc(-c4ccc(C(N)=O)c(F)c4)n4ncnc(N)c34)C2)s1 [Example 930, 4-(((5S,8r)-1-azaspiro[4.5]decan-8-yl)oxy)-N—((R)-1-(4-amino-7-(4-carbamoyl-3-fluorophenyl)pyrrolo[2,1-f][1,2,4]triazin-5-yl)piperidin-3-yl)-2-methylthiazole-5-carboxamide, TFA salt]"
15,7.89,"CNC(=O)c1ccc(-c2cc(N3CCC[C@@H](NC(=O)c4sc(Cl)cc4OCCN(C)C)C3)c3c(N)ncnn23)cn1 [Example 835, (R)-5-(4-amino-5-(3-(5-chloro-3-(2-(dimethylamino)ethoxy)thiophene-2-carboxamido)piperidin-1-yl)pyrrolo[2,1-f][1,2,4]triazin-7-yl)-N-methylpicolinamide]"
16,7.59,"COC(=O)N1CC=C(c2cc(N3CCC[C@@H](NC(=O)c4sc(C)nc4OC4CCN(C(C)C)CC4)C3)c3c(N)ncnn23)C1 [Example 361, Methyl (R)-3-(4-amino-5-(3-(4-((1-isopropylpiperidin-4-yl)oxy)-2-methylthiazole-5-carboxamido)piperidin-1-yl)pyrrolo[2,1-f][1,2,4]triazin-7-yl)-2,5-dihydro-1H-pyrrole-1-carboxylate]"
17,9.30,"CCC(C)(C)NC1CCC(Oc2nc(C)sc2C(=O)N[C@@H]2CCCN(c3cc(C4=C(C)C(=O)OC4)n4ncnc(N)c34)C2)CC1 (stereo partly drawn) [Example 1005, (R)—N-(1-(4-amino-7-(4-methyl-5-oxo-2,5-dihydrofuran-3-yl)pyrrolo[2,1-f][1,2,4]triazin-5-yl)piperidin-3-yl)-2-methyl-4-((4-(tert-pentylamino)cyclohexyl)oxy)thiazole-5-carboxamide]"
18,8.92,"[2H]C([2H])([2H])N(C1CCC(Oc2nc(C)sc2C(=O)N[C@@H]2CCCN(c3cc(-c4ccnc(OC)n4)n4ncnc(N)c34)C2)CC1)C([2H])([2H])[2H] (stereo partly drawn) [Example 1032, (R)—N-(1-(4-amino-7-(2-methoxypyrimidin-4-yl)pyrrolo[2,1-f][1,2,4]triazin-5-yl)piperidin-3-yl)-4-((4-(bis(methyl-d3)amino)cyclohexyl)oxy)-2-methylthiazole-5-carboxamide]"
19,9.00,CC(=O)N1CC=C(c2cc(N3CCC[C@@H](NC(=O)c4sc(Cl)cc4OC4CCCN(C(C)C)CC4)C3)c3c(N)ncnn23)C1 (stereo partly shown) [Example 987]
20,7.10,"CC(=O)c1ccc(-c2cc(N3CCC[C@@H](NC(=O)c4cccc(N5CCN(C)CC5)n4)C3)c3c(N)ncnn23)cn1 [Example 809, (R)-N-(1-(7-(6-acetylpyridin-3-yl)-4-aminopyrrolo[2,1-f][1,2,4]triazin-5-yl)piperidin-3-yl)-6-(4-methylpiperazin-1-yl)picolinamide]"
21,6.05,"CCOC1=C(C(=O)N[C@@H]2CCCN(c3cc(C4=CCN(C(C)=O)C4)n4ncnc(N)c34)C2)CN(CC(F)(F)F)C1=O [Example 759, (R)-N-(1-(7-(1-acetyl-2,5-dihydro-1H-pyrrol-3-yl)-4-aminopyrrolo[2,1-f][1,2,4]triazin-5-yl)piperidin-3-yl)-4-ethoxy-5-oxo-1-(2,2,2-trifluoroethyl)-2,5-dihydro-1H-pyrrole-3-carboxamide]"
22,6.87,"CN1CCN(c2cccc(C(=O)N[C@@H]3CCCN(c4cc(-c5ccc6[nH]ncc6c5)n5ncnc(N)c45)C3)n2)CC1 [Example 806, (R)-N-(1-(4-amino-7-(1H-indazol-5-yl)pyrrolo[2,1-f][1,2,4]triazin-5-yl)piperidin-3-yl)-6-(4-methylpiperazin-1-yl)picolinamide]"
23,8.15,"CC(=O)N1CC=C(c2cc(N3CCC[C@@H](NC(=O)c4sc(Cl)cc4OC4CC5CC(C4)N(C)C5)C3)c3c(N)ncnn23)C1 (single isomer, unassigned) [Example 952]"

row,Compound,pIC50
1,"CC(C)N1CC2(CN(c3cccc(C(=O)N[C@@H]4CCCN(c5cc(-c6cnc(-n7cnnn7)nc6)n6ncnc(N)c56)C4)n3)C2)C1 [Example 828, (R)-N-(1-(7-(2-(1H-tetrazol-1-yl)pyrimidin-5-yl)-4-aminopyrrolo[2,1-f][1,2,4]triazin-5-yl)piperidin-3-yl)-6-(6-isopropyl-2,6-diazaspiro[3.3]heptan-2-yl)picolinamide]",7.60
2,"CC1=C(c2cc(N3CCC[C@@H](NC(=O)c4sc(C)nc4OC4CCC(N(C)C)CC4)C3)c3c(N)ncnn23)COC1=O (stereo partly drawn) [Example 1017, N—((R)-1-(4-amino-7-(4-methyl-5-oxo-2,5-dihydrofuran-3-yl)pyrrolo[2,1-f][1,2,4]triazin-5-yl)piperidin-3-yl)-4-(((1S,4S)-4-(dimethylamino)cyclohexyl)oxy)-2-(methyl-d3)thiazole-5-carboxamide]",8.80
